Where two headings read alike, the source gives them in different places.
Experiments:
[1] = system: isolated guinea pig heart; test: Effect on isolated guinea pig heart, Langendorff (Example 7d)
Procedure: The isolated guinea pig heart was perfused according to Langendorff. The method used is described by Anden et al. (Acta. Pharmacol. et Toxicol. 21, 247, 1964). Contractions in the heart were recorded by means of a force displacement transducer and aa Grass polygraph Model 7. Epinephrine was used as reference. KWD2109 and KWD2025 were tested on the same preparation. The comparisons of effects were based on dose for 50 percent increase in chronotropic effect and 10 percent increase in inotropic effect.

[2] = system: bronchospasm induced by histamine aerosol; test: Protecting effect against histamine aerosol in intact guinea pigs (Example 7c); format: in vivo, guinea pig; details: for ED50: Cavia porcellus, m ± s.e., read-out: ED50 (protecting 50 per cent of the animals for more than 4 minutes)
Procedure: The compounds KWD2109 and KWD2025 have been compared in preventing bronchospasm induced by histamine aerosol in guinea pigs.
The drug was injected intraperitoneally 15 minutes (Table 2) or administered orally 30 minutes (Table 3) before histamine treatment. The dose of the drugs protecting 50 per cent of the animals for more than 4 minutes is denoted "ED50". In untreated animals only 1-2 percent will withstand the histamine aerosol for more than 4 minutes.
To study the duration of the effect, 2 mg/kg was administered orally to intact guinea pigs at different time intervals before the histamine treatment. Two series each including eleven groups of six animals was studied. The groups were tested in histamine aerosol 10, 20, 30, 40, 50, 60, 120, 180, 240, 300 and 360 minutes after the administration of the compound. The per cent of animals in each group protected more than 4 minutes and more than 10 minutes was determined.

[3] = system: isolated guinea pig auricle; test: Dual bath preparation, effect on left auricle (Example 8a)
Procedure: The left auricle was dissected out and mounted together with spirally-cut trachea from the same animal in a 100 ml bath in Kreb's solution (37°C.) well aereated with a mixture of oxygen (95%) and carbon dioxide (5%). The auricle was electrically stimulated with square wave pulses from a Techtronic Stimulator (voltage 2-4; duration: 10 m sec; frequency 1 per second). This is, in general, the same procedure described above in Example 5c.
Using the dual bath preparation, tests were made of the effect on the trachea and auricle of KWD2025 (of the present invention) and of the known drugs KWD2109 and epinephrine. The drug to be tested was added to the bath in the predetermined amount and allowed to act upon the organs for 10 minutes.

[4] = system: isolated guinea pig trachea; test: Bronchospasmolytic effect in vitro, isolated guinea pig trachea (Example 7a); details: Table 1, six experiments
Procedure: The trachea from a guinea pig was dissected out and spirally out. It was mounted in a water-jacketed bath (37°C.) in Kreb's solution and aerated with oxygen (95%) and carbon dioxide (5%). Pilocarpine (1 μg/ml) was added. The load was about 2 g and the relaxation was recorded by means of a Grass force displacement transducer and a Grass polygraph model 5. The compound KWD2109 was tested on six preparations in which epinephrine was used as reference.

heart rate = test: Tests on anesthetized cat, heart rate with bronchospasmolytic effect (Example 8b); format: in vivo
Text: The relative bronchospasmolytic and cardiovascular effects of compounds can be tested in the method of Konzett & Rossler (see Example 5b above). As has already been described, the test animal is force-ventilated and the effect of various compounds in controlling histamine-induced bronchoconstriction, as reflected by overflow of the forced ventilation in excess of lung capacity, is used as a measure of the bronchospasmolytic effect. Concurrently in the same animal, changes in heart rate and arterial mean pressure can be simultaneously recorded.
In carrying out this procedure, bronchoconstriction in the test animal is induced by injection of histamine. The ability of KWD2025 and KWD2109 to control the histamine-inducred bronchoconstriction is measured by injecting the test compound 3 minutes before injection of […], and before injection of histamine, the effect of the test compound on the heart rate is recorded.

`Oc1ccc(C(O)CNC2CCC2)cc1O` (stereo not drawn) [KWD2109, 1-(3',4'-dihydroxyphenyl)-2-(cyclobutylamino)-ethanol] was tested, and the “therapeutic index, bronchospasmolytic effect over effect on the heart (inotropic)” value ([1]; KWD2025 given index 1.0) was 0.083, the “effect on force x epinephrine” value ([1]; dose for 10 percent increase in inotropic effect, Table 5) was 5.5 ± 3.2 and the “effect on heart rate x epinephrine” value ([1]; dose for 50 percent increase in chronotropic effect, Table 4) was 11.8 ± 6.5. The ED50 ([2]; ip, 0.25 h, i.p., 15 minutes before histamine-aerosol) was 0.17 ± 0.02 mg/kg, the ED50 ([2]; po, 0.5 h, peroral, 30 minutes before histamine-aerosol) was 0.55 ± 0.14 mg/kg and the “protecting activity relative to KWD2025” value ([2]; intraperitoneal) was 3.5 times. The “protecting activity relative to KWD2025” value ([2]; oral) was 3.1 times, the “bronchospasmolytic activity relative to KWD2025 after intraperitoneal and oral administration” value ([2]; summary b256) was “about 3 times” and the “effect on auricle relative to epinephrine at doses with same effect on trachea” value ([3]; equi-effective doses on trachea) was “of the same order as that of epinephrine”. The “effect on force of contraction in auricle in concentrations relaxing the trachea” value ([3]; same bath) was “increased the force of contraction in the auricle in concentrations where it relaxed the trachea”, the “bronchospasmolytic effect x epinephrine” value [4] was 8.6 ± 1.7 times and the “effect on heart rate at equal bronchospasmolytically effective doses” value (heart rate) was “more pronounced effect on the heart rate than did KWD2025”.

Source: patent US3937838A, “Orally active bronchospasmolytic compounds and their preparation” (priority 1966, dated 1976)
